Reference: patent publication US8178668B2, “2-aminopyridine kinase inhibitors” (OSI Pharmaceuticals, LLC, priority 2008, dated 2012)
Where a name gives a salt, the structure may show the parent alone.

Columns and labels:
[1] = biological target: RON (human) (Homo sapiens, UniProt Q04912); test: RON kinase AlphaScreen assay (Km of ATP); format: biochemical; details: ATP at Km; at least duplicate experiments
Experimental: (§1) Person skilled in the art will appreciate that a variety of assay formats may be used to determine the activity of the compounds of this invention. For example, AlphaScreen (Amplified Luminescent Proximity Homogeneous Assay) technology was used with the kinases described below. Assay ATP concentrations for individual kinases are included in the text.
RON (human)—Km of ATP: RON assay is performed in a 384 well assay containing 200 ng/μL biotinylated poly(Glu,Tyr), 0.334 mM vanadate, desired concentration of ATP optimized for the enzyme in assay buffer (50 mM HEPES (pH=7.4), 12.5 mM MgCl2 and 1% glycerol). Desired compound is added in a final concentration of 1% DMSO with control being vehicle of DMSO alone. RON is diluted to the optimized (on a lot-by-lot basis) concentration in an enzyme diluent buffer (50 mM HEPES pH=7.4, 12.5 mM MgCl2 and 1% glycerol, 0.03% Brij35, 0.3 mM EGTA, lmM DTT, and 0.003% BSA). Enzyme is added to initiate the reaction and incubated for 30 min at RT. In subdued light, appropriate amount of PT66 donor and acceptor beads (diluted 1:260 from manufacturer's provision in a 25 mM Tris HCl (pH=7.5), 200 mM NaCl, 100 mM EDTA, 0.3% BSA buffer) are added to the wells. The plates, incubated for 1 h, are read on an AlphaQuest plate reader.

[2] = biological target: MET (human) (Homo sapiens, UniProt P08581); test: MET kinase AlphaScreen assay (Km of ATP); format: biochemical; details: ATP at Km; at least duplicate experiments
Chain of MET (human) (P08581 25-1390): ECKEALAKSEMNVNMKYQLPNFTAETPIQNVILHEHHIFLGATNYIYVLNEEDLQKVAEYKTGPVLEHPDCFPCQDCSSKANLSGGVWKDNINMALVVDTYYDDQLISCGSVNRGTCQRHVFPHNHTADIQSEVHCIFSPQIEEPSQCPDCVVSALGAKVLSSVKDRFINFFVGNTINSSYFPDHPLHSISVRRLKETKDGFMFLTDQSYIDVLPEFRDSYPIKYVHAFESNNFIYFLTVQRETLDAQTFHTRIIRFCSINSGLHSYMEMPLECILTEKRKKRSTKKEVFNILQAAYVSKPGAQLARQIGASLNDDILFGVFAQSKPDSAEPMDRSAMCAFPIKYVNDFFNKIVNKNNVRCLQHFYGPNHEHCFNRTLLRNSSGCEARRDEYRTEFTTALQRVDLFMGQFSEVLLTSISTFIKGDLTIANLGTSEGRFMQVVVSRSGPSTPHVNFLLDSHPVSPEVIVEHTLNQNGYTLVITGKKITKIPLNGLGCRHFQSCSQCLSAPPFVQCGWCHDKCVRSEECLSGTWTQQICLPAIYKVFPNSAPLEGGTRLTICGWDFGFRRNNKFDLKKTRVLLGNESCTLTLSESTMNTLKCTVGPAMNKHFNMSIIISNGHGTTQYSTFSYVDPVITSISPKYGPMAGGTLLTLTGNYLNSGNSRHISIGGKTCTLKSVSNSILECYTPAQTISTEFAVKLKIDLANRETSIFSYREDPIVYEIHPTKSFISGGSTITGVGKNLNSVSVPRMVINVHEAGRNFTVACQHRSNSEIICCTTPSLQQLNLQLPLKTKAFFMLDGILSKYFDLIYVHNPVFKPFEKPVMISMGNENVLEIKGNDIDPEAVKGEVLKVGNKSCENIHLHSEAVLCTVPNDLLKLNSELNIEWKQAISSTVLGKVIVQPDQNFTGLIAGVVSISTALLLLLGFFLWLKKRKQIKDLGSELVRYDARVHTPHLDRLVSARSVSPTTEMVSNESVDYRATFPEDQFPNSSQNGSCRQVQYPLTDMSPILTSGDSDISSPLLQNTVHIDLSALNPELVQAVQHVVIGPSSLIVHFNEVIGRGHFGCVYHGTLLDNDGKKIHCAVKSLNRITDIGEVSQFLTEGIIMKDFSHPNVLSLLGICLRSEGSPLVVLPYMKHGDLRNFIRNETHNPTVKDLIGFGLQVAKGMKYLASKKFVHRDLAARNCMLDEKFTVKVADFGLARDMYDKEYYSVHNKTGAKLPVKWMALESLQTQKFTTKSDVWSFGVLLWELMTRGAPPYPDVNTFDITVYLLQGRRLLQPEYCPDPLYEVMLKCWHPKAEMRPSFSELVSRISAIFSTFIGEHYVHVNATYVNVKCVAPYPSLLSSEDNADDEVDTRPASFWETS
Experimental: as §1
MET (human)—Km of ATP: MET assay is performed in a 384 well assay containing 200 ng/μL biotinylated poly(Glu,Tyr), 0.334 mM vanadate, desired concentration of ATP optimized for the enzyme in assay buffer (50 mM HEPES (pH=7.4), 5 mM MgCl2, 5 mM MnCl2, and 1% glycerol). Desired compound is added in a final concentration of 1% DMSO with control being vehicle of DMSO alone. MET is diluted to the optimized concentration (optimized on a lot-by-lot basis) in an enzyme diluent buffer (50 mM Tris pH=7.4, 1% glycerol, 0.03% Brij35, 0.24 mM EGTA, 1 mM DTT, and 0.003% BSA). Enzyme is added to initiate the reaction and incubated for 60 min at RT. In subdued light, appropriate amount of PT66 donor and acceptor beads (diluted 1:260 from manufacturer's provision in a 25 mM Tris HCl (pH=7.5), 400 mM NaCl, 100 mM EDTA, 0.3% BSA buffer) are added to the wells. The plates, incubated for 1 h, are read on an AlphaQuest plate reader

Chain of RON (human) (Q04912 25-1400): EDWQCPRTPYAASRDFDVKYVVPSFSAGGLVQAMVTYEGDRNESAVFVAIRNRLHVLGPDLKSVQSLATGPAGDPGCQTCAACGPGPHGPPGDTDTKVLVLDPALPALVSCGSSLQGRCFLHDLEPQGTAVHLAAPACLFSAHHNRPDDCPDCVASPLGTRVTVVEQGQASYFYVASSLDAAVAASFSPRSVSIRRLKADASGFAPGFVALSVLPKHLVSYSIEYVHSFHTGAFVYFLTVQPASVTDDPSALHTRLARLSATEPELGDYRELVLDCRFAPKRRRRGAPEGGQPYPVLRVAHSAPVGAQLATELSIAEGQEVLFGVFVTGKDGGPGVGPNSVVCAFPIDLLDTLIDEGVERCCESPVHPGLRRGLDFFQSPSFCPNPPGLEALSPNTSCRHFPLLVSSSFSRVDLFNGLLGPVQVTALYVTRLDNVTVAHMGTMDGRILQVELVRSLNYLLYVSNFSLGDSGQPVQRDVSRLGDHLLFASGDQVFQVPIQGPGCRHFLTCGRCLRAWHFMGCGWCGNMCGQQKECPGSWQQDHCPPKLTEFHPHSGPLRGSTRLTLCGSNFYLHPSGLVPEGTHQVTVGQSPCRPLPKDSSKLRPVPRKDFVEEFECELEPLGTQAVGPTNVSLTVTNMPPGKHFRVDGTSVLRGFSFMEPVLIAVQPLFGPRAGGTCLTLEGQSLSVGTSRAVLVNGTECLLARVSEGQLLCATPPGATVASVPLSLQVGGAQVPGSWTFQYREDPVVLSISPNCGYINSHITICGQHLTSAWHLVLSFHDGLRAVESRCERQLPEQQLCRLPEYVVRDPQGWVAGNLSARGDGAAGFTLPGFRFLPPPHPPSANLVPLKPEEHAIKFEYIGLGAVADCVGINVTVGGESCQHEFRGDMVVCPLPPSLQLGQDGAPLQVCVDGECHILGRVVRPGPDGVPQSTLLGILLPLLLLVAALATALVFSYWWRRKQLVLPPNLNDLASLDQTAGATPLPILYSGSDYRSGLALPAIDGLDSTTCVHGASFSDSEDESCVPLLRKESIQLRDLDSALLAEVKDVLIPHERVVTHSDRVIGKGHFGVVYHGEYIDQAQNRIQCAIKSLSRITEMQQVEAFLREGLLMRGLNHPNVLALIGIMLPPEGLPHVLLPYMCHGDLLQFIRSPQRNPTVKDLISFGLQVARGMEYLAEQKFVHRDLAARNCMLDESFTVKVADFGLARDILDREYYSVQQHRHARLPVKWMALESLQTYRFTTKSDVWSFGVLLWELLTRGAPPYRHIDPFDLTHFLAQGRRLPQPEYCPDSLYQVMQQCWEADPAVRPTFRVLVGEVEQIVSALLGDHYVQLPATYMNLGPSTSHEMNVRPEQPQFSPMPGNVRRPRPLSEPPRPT

Structure (SMILES) | IC50 [1] [nM] | IC50 [2] [nM]
Cc1nc(-c2cc(-c3cnn(C4CCNCC4)c3)cnc2N)cc2ccccc12 [Example 1, 3-(1-Methylisoquinolin-3-yl)-5-(1-piperidin-4-yl-1H-pyrazol-4-yl)-pyridin-2-ylamine trihydrochloride] | 1000 to 20000 | 1000 to 20000
Cc1c(-c2cc(-c3cnn(C4CCNCC4)c3)cnc2N)ncc2ccccc12 [Example 2, 3-(4-Methylisoquinolin-3-yl)-5-(1-piperidin-4-yl-1H-pyrazol-4-yl)-pyridin-2-ylamine trihydrochloride] | > 20000 | 1000 to 20000
Nc1ncc(-c2cnn(C3CCNCC3)c2)cc1-c1cc2cccc(Cl)c2cn1 [Example 3, 3-(8-Chloroisoquinolin-3-yl)-5-(1-piperidin-4-yl-1H-pyrazol-4-yl)-pyridin-2-ylamine trihydrochloride] | ≤ 100 | ≤ 100
Cc1ccc2cnc(-c3cc(-c4cnn(C5CCNCC5)c4)cnc3N)cc2c1 [Example 4, 3-(6-Methylisoquinolin-3-yl)-5-(1-piperidin-4-yl-1H-pyrazol-4-yl)-pyridin-2-ylamine trihydrochloride] | 1000 to 20000 | 100 to 1000
Cc1cccc2cc(-c3cc(-c4cnn(C5CCNCC5)c4)cnc3N)ncc12 [Example 5, 3-(8-Methylisoquinolin-3-yl)-5-(1-piperidin-4-yl-1H-pyrazol-4-yl)-pyridin-2-ylamine trihydrochloride] | 100 to 1000 | 100 to 1000
Cc1ccc(F)c2cnc(-c3cc(-c4cnn(C5CCNCC5)c4)cnc3N)cc12 [Example 6, 3-(8-Fluoro-5-methylisoquinolin-3-yl)-5-(1-piperidin-4-yl-1H-pyrazol-4-yl)-pyridin-2-ylamine trihydrochloride] | 100 to 1000 | 100 to 1000
Nc1ncc(-c2cnn(C3CCNCC3)c2)cc1-c1cc2c(Br)ccc(F)c2cn1 [Example 7, 3-(5-Bromo-8-fluoroisoquinolin-3-yl)-5-(1-piperidin-4-yl-1H-pyrazol-4-yl)-pyridin-2-ylamine trihydrochloride] | 100 to 1000 | ≤ 100
Nc1ncc(-c2cnn(C3CCNCC3)c2)cc1-c1ncc2ccccc2c1F [Example 8, 3-(4-Fluoroisoquinolin-3-yl)-5-(1-piperidin-4-yl-1H-pyrazol-4-yl)-pyridin-2-ylamine trihydrochloride] | 1000 to 20000 | 1000 to 20000
Nc1ncc(-c2cnn(C3CCNCC3)c2)cc1-c1cc2c(Cl)ccc(Cl)c2cn1 [Example 9, 3-(5,8-Dichloroisoquinolin-3-yl)-5-(1-piperidin-4-yl-1H-pyrazol-4-yl)-pyridin-2-ylamine trihydrochloride] | 100 to 1000 | ≤ 100
Nc1ncc(-c2cnn(C3CCNCC3)c2)cc1-c1cc2c(F)ccc(F)c2cn1 [Example 10, 3-(5,8-Difluoroisoquinolin-3-yl)-5-(1-piperidin-4-yl-1H-pyrazol-4-yl)-pyridin-2-ylamine trihydrochloride] | 1000 to 20000 | 100 to 1000
Nc1ncc(-c2cnn(C3CCNCC3)c2)cc1-c1cc2c(Cl)ccc(F)c2cn1 [Example 11, 3-(5-Chloro-8-fluoroisoquinolin-3-yl)-5-(1-piperidin-4-yl-1H-pyrazol-4-yl)-pyridin-2-ylamine trihydrochloride] | 100 to 1000 | ≤ 100
COc1ccc(Cl)c2cc(-c3cc(-c4cnn(C5CCNCC5)c4)cnc3N)ncc12 [Example 12, 4-{4-[6-Amino-5-(5-chloro-8-methoxyisoquinolin-3-yl)-pyridin-3-yl]-pyrazol-1-yl}-piperidine trihydrochloride] | 1000 to 20000 | 100 to 1000
Nc1ncc(-c2cnn(C3CCNCC3)c2)cc1-c1cc2ccccc2cn1 [Example 13, 3-Isoquinolin-3-yl-5-(1-piperidin-4-yl-1H-pyrazol-4-yl)-pyridin-2-ylamine trihydrochloride] | 1000 to 20000 | 100 to 1000
Nc1ncc(-c2cnn(C3CCNCC3)c2)cc1-c1cc2ccc(OC(F)(F)F)cc2cn1 [Example 14, 5-(1-Piperidin-4-yl-1H-pyrazol-4-yl)-3-(7-trifluoromethoxy-isoquinolin-3-yl)-pyridin-2-ylamine trihydrochloride] | 1000 to 20000 | 1000 to 20000
Nc1ncc(-c2cnn(C3CCNCC3)c2)cc1-c1cc2c(Cl)c(F)cc(F)c2cn1 [Example 15, 3-(5-Chloro-6,8-difluoroisoquinolin-3-yl)-5-(1-piperidin-4-yl-1H-pyrazol-4-yl)-pyridin-2-ylamine trihydrochloride salt] | 100 to 1000 | ≤ 100
Nc1ncc(-c2cnn(C3CCNCC3)c2)cc1-c1cc2cc(C(F)(F)F)ccc2cn1 [Example 16, 5-(1-Piperidin-4-yl-1H-pyrazol-4-yl)-3-(6-trifluoromethylisoquinolin-3-yl)-pyridin-2-ylamine trihydrochloride salt] | 100 to 1000 | 100 to 1000
Nc1ncc(-c2cnn(C3CCNCC3)c2)cc1-c1cc2ccc(C(F)(F)F)cc2cn1 [Example 17, 5-(1-Piperidin-4-yl-1H-pyrazol-4-yl)-3-(7-trifluoromethylisoquinolin-3-yl)-pyridin-2-ylamine tri-hydrochloride salt] | 100 to 1000 | 100 to 1000
Nc1ncc(-c2cnn(C3CCNCC3)c2)cc1-c1cc2c(C(F)(F)F)cccc2cn1 [Example 18, 5-(1-Piperidin-4-yl-1H-pyrazol-4-yl)-3-(5-trifluoromethylisoquinolin-3-yl)-pyridin-2-ylamine trihydrochloride salt] | 100 to 1000 | 100 to 1000

The next lines start with the values.

IC50 [1] [nM] | IC50 [2] [nM] | Structure (SMILES)
100 to 1000 | ≤ 100 | Nc1ncc(-c2cnn([C@@H]3CNC(CO)C3)c2)cc1-c1nc2ccccc2s1 (mixture of isomers) [Example 180, {(S)-4-[4-(6-Amino-5-benzothiazol-2-ylpyridin-3-yl)-pyrazol-1-yl]-pyrrolidin-2-yl}-methanol]
100 to 1000 | 100 to 1000 | Nc1ncc(-c2cnn(C3CCNCC3)c2)cc1-c1cc2cccc(C(F)(F)F)c2cn1 [Example 19, 5-(1-Piperidin-4-yl-1H-pyrazol-4-yl)-3-(8-trifluoromethylisoquinolin-3-yl)-pyridin-2-ylamine trihydrochloride salt]
100 to 1000 | 100 to 1000 | Cc1ccc(C)c2cc(-c3cc(-c4cnn(C5CCNCC5)c4)cnc3N)ncc12 [Example 20, 3-(5,8-Dimethylisoquinolin-3-yl)-5-(1-piperidin-4-yl-1H-pyrazol-4-yl)-pyridin-2-ylamine trihydrochloride salt]
1000 to 20000 | 100 to 1000 | Nc1ncc(-c2cnn(C3CCNCC3)c2)cc1-c1cc2ccc(Br)cc2cn1 [Example 21, 3-(7-Bromoisoquinolin-3-yl)-5-(1-piperidin-4-yl-1H-pyrazol-4-yl)-pyridin-2-ylamine trihydrochloride salt]
1000 to 20000 | 100 to 1000 | Nc1ncc(-c2cnn(C3CCNCC3)c2)cc1-c1cc2c(Br)cccc2cn1 [Example 22, 3-(5-Bromoisoquinolin-3-yl)-5-(1-piperidin-4-yl-1H-pyrazol-4-yl)-pyridin-2-ylamine trihydrochloride salt]
100 to 1000 | 100 to 1000 | Nc1ncc(-c2cnn(C3CCNCC3)c2)cc1-c1cc2cc(Br)ccc2cn1 [Example 23, 3-(6-Bromoisoquinolin-3-yl)-5-(1-piperidin-4-yl-1H-pyrazol-4-yl)-pyridin-2-ylamine trihydrochloride salt]
100 to 1000 | 100 to 1000 | Nc1ncc(-c2cnn(C3CCNCC3)c2)cc1-c1cc2cccc(Br)c2cn1 [Example 24, 3-(8-Bromoisoquinolin-3-yl)-5-(1-piperidin-4-yl-1H-pyrazol-4-yl)-pyridin-2-ylamine trihydrochloride salt]
100 to 1000 | 100 to 1000 | Nc1ncc(-c2cnn(C3CCNCC3)c2)cc1-c1cc2cc(-c3ccccc3)ccc2cn1 [Example 25, 3-(6-Phenylisoquinolin-3-yl)-5-(1-piperidin-4-yl-1H-pyrazol-4-yl)-pyridin-2-ylamine tri-hydrochloride salt]
100 to 1000 | 100 to 1000 | Nc1ncc(-c2cnn(C3CCNCC3)c2)cc1-c1cc2ccc(-c3ccccc3)cc2cn1 [Example 26, 3-(7-Phenylisoquinolin-3-yl)-5-(1-piperidin-4-yl-1H-pyrazol-4-yl)-pyridin-2-ylamine tri-hydrochloride salt]
